In article PMC2950867 (Journal of pharmacological and toxicological methods, 2010):
Read-outs that look alike come from different tables or passages of the source.

Experiments:
[1] = ref Horton et al., cited from earlier work; for pKa of the α-amino group: 25 °C, free amino acid
Caco-2 cells [2] = type: cell-based, human; conditions: for IC50: read-out: IC50 MTT 24-hr, Caco-2 confluent monolayers, 24-hr single dosing
Caco-2 cells [3] = type: cell-based, human; conditions: read-out: IC50 TMER 24-hr; Caco-2 monolayers on PET inserts, 24-hr single dosing

| Compound | pKa of the α-amino group [1] | IC50 (Caco-2 cells [2]) | IC50 (Caco-2 cells [3]) | further results |
| --- | --- | --- | --- | --- |
| NC(=O)C[C@H](N)C(=O)O [asparagine] | 8.7 | – | – | – |
| [Cl][Cd][Cl] [cadmium chloride] | – | 0.109 mM | 0.049 mM | – |
| O=S(=O)([O-])[O-].[Cu+2] [cupric sulfate] | – | 1.57 mM | 1.8 mM | – |
| N[C@@H](CS)C(=O)O [cysteine] | 10.7 | – | – | – |
| NCC(=O)O [glycine] | 9.8 | – | – | hydropathy (tendency to prefer a hydrophobic environment) [1]: 0.16 kcal/mol |
| [Cl][Mn][Cl] [manganese chloride] | – | 9.6 mM | 3.08 mM | – |
| [Cl][Ni][Cl] [nickel chloride] | – | 0.968 mM | 8.4 mM | MTT (cell viability) (Caco-2 cells [2]; 24-hr single exposure at the 24-hr TMER IC50 concentration): 16% of control |
| N[C@@H](Cc1ccc(O)cc1)C(=O)O [tyrosine] | – | – | – | hydropathy (tendency to prefer a hydrophobic environment) [1]: 0.019 kcal/mol |
| mercury chloride | – | – | 0.09 mM | – |
